One test deals with T1, μ opioid receptor (Homo sapiens, UniProt P35372).
T1 construct: expressed in transfected cells; host or cells: CHO cells (membranes)
The experiment in a line: Competition binding assay on membranes of CHO cells expressing μ opioid receptor, [3H]-labeled ligand. The settings on record: for inhibition at 10 µM: Table 1-1, 10 μM concentration of compound, mean ± SD of three measurements, read-out: μOR Binding rate (%); for Ki: read-out: μOR Ki. As for the experimental part: (§1) CHO cells expressing p opioid receptor, δ opioid receptor and κ opioid receptor were cultured in 10 cm^2 culture dishes (F-12 medium+10% neonatal bovine serum) for several days, and the culture fluid was aspirated after the cells had grown to the bottom of the dishes; 3 ml of PBS/EDTA solution (0.1M NaCl, 0.01M NaH2PO4, 0.04% EDTA) was added to digest the cells for 3-5 min. Add ice-cold homogenate (50 mM HEPES PH 7.4, 3 mM MgCl, 1 mM EGTA) to the centrifuge tube, transfer the solution and sediment to a homogenizer and homogenize; then transfer the homogenate to a centrifuge tube and centrifuge at 18000 rpm. Centrifuge for 15 min, two times; the obtained precipitate was homogenized with appropriate amount of 50 mM Tris-HCl, pH 7.4 buffer and divided into centrifuge tubes and stored at −70° C. in the refrigerator until use.
(§2) The total binding tube was spiked with 20-30 μg of the expressed membrane receptor protein and […] ligand (1-2 nM), the corresponding non-specific binding tube was spiked with 1 μM of the corresponding ligand, and the sample tubes were spiked with various screened opioid ligands in a final volume of […], incubated at 30° C. for 30 min, and the reaction was terminated in ice water. […] The samples were filtered under negative pressure through GF/C (whatman) glass fiber filter paper on a Millipore sample collector. The reaction was rinsed three times with 4 ml of 50 mMV Tris-HCl (pH 7.4), the filter paper was dried and placed in 0.5 ml Eppendorf tubes with 0.5 ml of lipophilic scintillation solution, the radioactivity was measured by PERKIN ELMER PRI-CARB 2910 liquid scintillation counter and the inhibition rate was calculated. Inhibition rate (or binding rate)=(total binding rate dpm−sample tube dpm)/(total binding tube dpm−non-specific binding tube dpm)×100%
(§3) IC50 was calculated using Prism 5.0 software. the Ki value was calculated as follows, Ki=IC50/(1+[IL]/Kd), [lL] is the concentration of the added labeled ligand and Kd is the equilibrium dissociation parameter of the labeled ligand.
(§4) CHO cells expressing p opioid receptor, δ opioid receptor and κ opioid receptor were cultured in a 10 cm^2 culture dish (F-12 medium+10% neonatal bovine serum) for several days, and the culture fluid was aspirated after the cells grew to the bottom of the dish. 3 mL PBS/EDTA solution (0.1 M NaCl, 0.01 M NaH2PO4, 0.04% EDTA) was added to digest the cells for 3˜5 min, blew with a pipette to completely dislodge the cells. The cells were collected in a 40 mL centrifuge tube, centrifuged at 5000 rpm for 5 min. The supernatant was removed and the ice-cold homogenate (50 mM HEPES pH 7.4, 3 mM MgCl2, 1 mM EGTA) was added to the centrifuge tube. The solution and the precipitate were transferred to a homogenizer. Then the homogenate was transferred to a centrifuge tube and centrifuged at 18000 rpm for 15 min. The precipitate was centrifuged twice at 18000 rpm for 15 min. The obtained precipitate was homogenized by adding appropriate amount of 50 mM Tris-HCl, pH 7.4 buffer and divided into centrifuge tubes and stored at −70° C. in the refrigerator until use.
(§5) The total binding tube was added with 20-30 μg of expressed membrane receptor protein and [3H]-labeled ligand (1-2 nM). The corresponding non-specific binding tube was added with 1 μM of the corresponding ligand, and the sample tubes were added with various screened opioid ligands in a final volume of 100 μL. All of them were incubated for 30 min at 30° C., and the reaction was terminated in ice water. The samples were filtered under negative pressure through GF/C (Whatman) glass fiber filter paper on a Millipore sample collector. The reaction was rinsed three times with 4 mL of 50 mM Tris-HCl (pH 7.4), the filter paper was dried and placed in 0.5 mL Eppendorf tubes with 0.5 mL of lipophilic scintillation solution. […]

Another test has as its target T2, δ opioid receptor (Homo sapiens, UniProt P41143).
T2 construct: expressed in transfected cells; host or cells: CHO cells (membranes)
The experiment in a line: Competition binding assay on membranes of CHO cells expressing δ opioid receptor, [3H]-labeled ligand. To be noted: for inhibition at 10 µM / inhibition at 1 µM: 0.5 h; for inhibition at 10 µM: Table 1-1, 10 μM concentration of compound; for Ki: read-out: δOR Ki; for inhibition at 1 µM: 1 μM concentration of compound. On the procedure: as §1, §2, §3, §4, §5

The next test deals with T3, κ opioid receptor (Homo sapiens, UniProt P41145).
T3 construct: expressed in transfected cells; host or cells: CHO cells (membranes)
The experiment in a line: Competition binding assay on membranes of CHO cells expressing κ opioid receptor, [3H]-labeled ligand. To be noted: for inhibition at 10 µM / inhibition at 1 µM: 0.5 h; for inhibition at 10 µM: 10 μM concentration of compound; for Ki: read-out: κOR Ki; for inhibition at 1 µM: 1 μM concentration of compound. As for the experimental part: as §1, §2, §3, §4, §5

Setting [1] is: Table 1-1, read-out: κOR Binding rate (%).
[2] abbreviates: Table 4-1, read-out: δOR Binding rate (%).
[3] abbreviates: Table 4-1, read-out: κOR Binding rate (%).

The structures appear in SMILES notation. Structures can show the parent of a compound that is named as a salt. Where two headings read alike, the source gives them in different places.

Regarding `COc1cccc(C2(OC(=O)c3ccccc3)CCC(N(C)S(=O)(=O)Cc3ccccc3)CC2CN(C)C)c1` (stereo not drawn), the inhibition at 10 µM at μ opioid receptor turned out to be 81.2 ± 4.2%; on δ opioid receptor (read-out: δOR Binding rate (%)), 30.1 ± 14.9%; at κ opioid receptor (setting [1]), 35.7 ± 3%.
The like results for `COc1cccc(C2(OC(=O)c3ccccc3)CCC(NS(=O)(=O)c3ccccc3)CC2CN(C)C)c1` (stereo not drawn) were, in that order, 80.9 ± 4.4%, 17.4 ± 2.5% and 51.5 ± 6.6%.
On to `COc1cccc(C2(O)CCC(NS(=O)(=O)c3cccc(Cl)c3)CC2CN(C)C)c1` (stereo not drawn), for which the inhibition at 10 µM on μ opioid receptor is 79.7 ± 4.6%; at δ opioid receptor (read-out: δOR Binding rate (%)), 14.5 ± 5.8%; at κ opioid receptor (setting [1]) it was 35.9 ± 5.7%.
The like results for `COc1cccc(C2(OC(=O)c3ccccc3)CCC(N(C)S(=O)(=O)Cc3cccc(Cl)c3)CC2CN(C)C)c1` (stereo not drawn) were, in that order, 89.8 ± 4.6%, 4.8% and 25.5 ± 6.1%.
The like results for `COc1cccc(C2(OC(=O)c3ccccc3)CCC(NS(=O)(=O)c3cccc(Cl)c3)CC2CN(C)C)c1` (stereo not drawn) were, in that order, 70.4 ± 3%, 18.8 ± 8.6% and 39 ± 5.5%.
By Ki is commonly meant the dissociation constant of the complex between target and ligand, obtained from inhibition or displacement. Turning to `COc1cccc(C2(O)CCC(N(Cc3ccccc3)S(=O)(=O)c3cccc(Cl)c3)CC2CN(C)C)c1` (stereo not drawn), the inhibition at 10 µM was 85.8 ± 3.2% on μ opioid receptor and 5.1% on δ opioid receptor (read-out: δOR Binding rate (%)). For the same molecule, the Ki at κ opioid receptor (Table 1-1) was found to be 9.81 ± 0.32 nM.
Take `COc1cccc(C2(O)CCC(N(Cc3ccccc3)S(=O)(=O)c3ccccc3)CC2CN(C)C)c1` (stereo not drawn): the inhibition at 10 µM on μ opioid receptor is 70.5 ± 2.3%; on δ opioid receptor (read-out: δOR Binding rate (%)), 9.53%; on κ opioid receptor (setting [1]), 84.7 ± 2.1%.
In the case of `CN(C)C[C@@H]1CN(C(=O)Cc2cc(F)c(F)cc2F)CC[C@@]1(O)c1cccc(O)c1`, the Ki was 1.77 ± 0.18 nM on μ opioid receptor (Table 4-1), 178 ± 17.9 nM at δ opioid receptor (Table 4-1) and 127 ± 1.6 nM on κ opioid receptor (Table 4-1).
As to `COc1cccc([C@]2(O)CCN(C(=O)Cc3cc(F)c(F)cc3F)C[C@H]2CN(C)C)c1`, on μ opioid receptor (Table 4-1), the Ki is 165 ± 22.3 nM. For the same molecule, the values for the inhibition at 1 µM at δ opioid receptor (setting [2]) and at κ opioid receptor (setting [3]) were 26.6 ± 3.9% and 33 ± 4.1%, respectively.
As to `CN(C)C[C@H]1CN(C(=O)Cc2cc(F)c(F)cc2F)CC[C@]1(O)c1cccc(O)c1`, the values for the Ki on μ opioid receptor (Table 4-1), on δ opioid receptor (Table 4-1) and at κ opioid receptor (Table 4-1) were 53.5 ± 0.09 nM, 3560 ± 96.5 nM and 42.3 ± 0.6 nM, respectively.
For `COc1cccc([C@@]2(O)CCN(C(=O)Cc3cc(F)c(F)cc3F)C[C@@H]2CN(C)C)c1`, the Ki on μ opioid receptor (Table 4-1) amounted to 2310 ± 234 nM. The inhibition at 1 µM on δ opioid receptor (setting [2]) came to 0%; at κ opioid receptor (setting [3]) it was 23.4 ± 3.9%.
With `COc1cccc(C2(O)CCC(S(=O)(=O)Cc3ccccc3)CC2CN(C)C)c1` (stereo not drawn) [4-(Benzylsulfonyl)-2-((dimethylamino)methyl)-1-(3-methoxyphenyl) cyclohexane-1-ol hydrochloride], the inhibition at 10 µM at μ opioid receptor amounted to 98.6 ± 1.2%; at δ opioid receptor (read-out: δOR Binding rate (%)) it was 44 ± 7.85%; at κ opioid receptor (setting [1]) it was 47.7 ± 3.1%.
With `CN(C)C[C@@H]1CN(S(=O)(=O)Cc2ccccc2)CC[C@@]1(O)c1cccc(O)c1` [(3R,4S)-1-(Benzylsulfonyl)-3-((dimethylamino)methyl)-4-(3-hydroxyphenyl)piperidin-4-ol hydrochloride], the Ki at μ opioid receptor (Table 4-1) worked out at 0.17 ± 0.01 nM; at δ opioid receptor (Table 4-1), 1100 ± 42 nM; on κ opioid receptor (Table 4-1), 33.7 ± 3.26 nM.
As for `COc1cccc([C@]2(O)CCN(S(=O)(=O)Cc3ccccc3)C[C@H]2CN(C)C)c1` [(3R,4S)-1-(Benzylsulfonyl)-3-((dimethylamino)methyl)-4-(3-methoxyphenyl)piperidin-4-ol hydrochloride salt], the inhibition at 0.1 µM turned out to be 27.5 ± 1.54% on μ opioid receptor (Table 4-1 footnote a, 0.1 μM, read-out: μOR Inhibition rate); 10.5 ± 3.7% at δ opioid receptor (Table 4-1 footnote a, 0.1 μM, read-out: δOR Inhibition rate); 15.2 ± 1.56% on κ opioid receptor (Table 4-1 footnote a, 0.1 μM, read-out: κOR Inhibition rate).
With `CN(C)C[C@H]1CN(S(=O)(=O)Cc2ccccc2)CC[C@]1(O)c1cccc(O)c1` [(3S,4R)-1-(Benzylsulfonyl)-3-((dimethylamino)methyl)-4-(3-hydroxyphenyl)piperidin-4-ol hydrochloride], the Ki was 38.3 ± 1.18 nM on μ opioid receptor (Table 4-1), 1089 ± 9 nM at δ opioid receptor (Table 4-1) and 231 ± 13.1 nM on κ opioid receptor (Table 4-1).
`COc1cccc(C2(O)CCN(C(=O)Cc3ccccc3Cl)CC2CN(C)C)c1` (stereo not drawn) [FWBE20, 2-(2-Chlorophenyl)-1-(3-((dimethylamino)methyl)-4-hydroxy-4-(3-methoxyphenyl)piperidin-1-yl)ethyl-1-one hydrochloride]: the inhibition at 1 µM on μ opioid receptor (0.5 h, Table 5-1, 1 μM concentration of compound, read-out: μOR Combination rate (%)) was 28.3 ± 7.2%; on δ opioid receptor (Table 5-1, read-out: δOR Combination rate (%)) it was 0%; at κ opioid receptor (Table 5-1, read-out: κOR Combination rate (%)), 34.8 ± 0.7%.
As to `COc1cccc(C2(O)CCC(NS(=O)(=O)c3ccccc3)CC2CN(C)C)c1` (stereo not drawn) [N-(3-((Dimethylamino)methyl)-4-hydroxy-4-(3-methoxyphenyl)cyclohexyl) benzenesulfonamide hydrochloride], the inhibition at 10 µM was found to be 75.8 ± 4.1% on μ opioid receptor, 38 ± 2.43% at δ opioid receptor (read-out: δOR Binding rate (%)) and 25.8 ± 7.9% at κ opioid receptor (setting [1]).
Consider `CN(C)CC1CN(S(=O)(=O)Cc2ccccc2)CCC1(O)c1cccc(OC(F)(F)F)c1.Cl` (stereo not drawn) [hydrochloride], for which the Ki at μ opioid receptor (Table 2-1) was 64.5 ± 1.76 nM. The inhibition at 1 µM was 40.8 ± 2.23% at δ opioid receptor (Table 2-1, read-out: δOR Binding rate (%)) and 21.4 ± 0.36% on κ opioid receptor (Table 2-1, read-out: κOR Binding rate (%)).
As to `COc1cccc(C2(OC(F)F)CCN(S(=O)(=O)Cc3ccccc3)CC2CN(C)C)c1.Cl` (stereo not drawn) [hydrochloride], the inhibition at 0.1 µM on μ opioid receptor (Table 2-1 footnote a, at 0.1 μM, read-out: μOR Inhibition rate or binding rate) worked out at 22.6 ± 9.8%; on δ opioid receptor (Table 2-1 footnote a, at 0.1 μM, read-out: δOR Inhibition rate or binding rate), 0%; on κ opioid receptor (Table 2-1 footnote a, at 0.1 μM, read-out: κOR Inhibition rate or binding rate), 15.5 ± 4.1%.

The record behind these values is patent publication US12624004B2 (Fudan University, priority 2019, dated 2026).
